As usually defined, the IC50 is the concentration at which inhibition is half-maximal.

The source of these data is patent EP2112152A1, “Dihydropteridinones as Plk Inhibitors” (GPC Biotech AG, priority 2008, dated 2009).

Where two headings read alike, the source gives them in different places.

Assay [1] deals with Abl, Akt1, Aur A, c-Kit, c-Raf, Cdk1/CycB, Chk1, FGFR3, Flt3, Fyn, IGF1-R, INSR, Lyn, MAPK-ERK1, p38a, PAK4, PKCalpha, Ret, ROCK2, RSK 1, c-Src, TIE2, and …. Put plainly: Selectivity panel (Proteros), 23 other kinases. The note with it: tested at 1 mM in triplicates; each of the 23 other kinases. The assay is classed as biochemical. How it is done:
Selected compound of the present invention were tested in a standard selectivity panel including Plk1 and 23 other kinases (Proteros biostructures GmbH, Martinsried/Munich, Germany), under conditions of non-disclosure, non-dissemination and non-use.
In brief, compounds 1, 13, 14, and 25 (see Table 1) were tested at 1 mM in triplicates against Plk1 as well as against Abl, Akt1, Aur A, c-Kit, c-Raf, Cdk1/CycB, Chk1, FGFR3, Flt3, Fyn, IGF1-R, INSR, Lyn, MAPK-ERK1, p38a, PAK4, PKCalpha, Ret, ROCK2, RSK 1, c-Src, TIE2, and VEGF-R2.

A further assay concerns HCT 116. Put plainly: SRB cell proliferation assay, HCT 116. The assay is classed as cell-based. The note with it: Homo sapiens. In a few lines:
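Cells plated 24 h before compound, then exposed 72 h over a concentration range. TCA-fixed, sulforhodamine B-stained, bound dye read at OD520; IC50 derived from % inhibition of proliferation versus DMSO-treated cells.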

In a further assay the test system is ACHN. Kind of assay: SRB cell proliferation assay, ACHN. The assay is classed as cell-based. The note with it: Homo sapiens, 18-Cell Line Panel, kidney. The procedure: (§1) Cells were exposed to the test compounds at various concentrations appropriate to determine an IC50 for 72 hours. Cell proliferation was measured using the SRB assay according to Shekan et al (J Natl Cancer Inst (1990) 82, 1107-112) in order to estimate the IC50 values shown in Table 3. Briefly, cells were plated in 96 well dishes 24 hours prior to compound addition at the densities specified in Table 5.1. The assay was terminated with the addition of cold TCA to a final concentration of 10% after growth medium has been removed and the plates were incubated over night at 4°C. The plates were then washed 5 times with water and 100µl of a Sulforhodamine B solution (4%) was added to each well. The plates were then incubated for 10 minutes at room temperature before removal of unbound dye by washing with 1% acetic acid. The bound dye was solubilised with 10 mM Trizma base and the absorbance read at OD520.
(§2) Table 8.1: 18-Cell Line Panel

The next assay concerns DU 145. Kind of assay: SRB cell proliferation assay, DU 145. In kind it is cell-based. The settings on record: Homo sapiens, 18-Cell Line Panel, prostate, read-out: IC50 DU145. How it is done:
as §1, §2

In the next assay the test system is MDA-MB-468. Kind of assay: SRB cell proliferation assay, MDA-MB-468. In kind it is cell-based. The note with it: Homo sapiens, MDA-MB-468; 18-Cell Line Panel; breast. The procedure: as §1, §2
For a further assay, the system named is SW620. Put plainly: SRB cell proliferation assay, SW620. The assay is classed as cell-based. The note with it: Homo sapiens, SW-620; 18-Cell Line Panel; colon. How it is done:
as §1, §2

A further assay has as its system HeLa. Kind of assay: SRB cell proliferation assay, HeLa. In kind it is cell-based. The note with it: Homo sapiens, 18-Cell Line Panel, cervix. The procedure: as §1, §2
The subject of a further assay is MDA-MB-231. Put plainly: SRB cell proliferation assay, MDA-MB-231. The assay is classed as cell-based. The note with it: Homo sapiens, 18-Cell Line Panel, breast. The procedure:
as §1, §2

In another assay the test system is SK-MEL-28. Put plainly: SRB cell proliferation assay, SK-MEL-28. The assay is classed as cell-based. The settings on record: Homo sapiens, 18-Cell Line Panel, melanoma. The procedure:
as §1, §2

For another assay, the target named is Plk1 (Homo sapiens, UniProt P53350). Put plainly: Cellular Plk1 kinase activity: nucleophosmin (B23) Ser4 phosphorylation in HCT116 cells (MSD electrochemiluminescence). The settings on record: 100 ng/ml nocodazole, 4 hours after compound addition, read-out: Biochemical IC50 Nucleophosmin assay. Further details: host or cells: HCT116. In kind it is cell-based. In a few lines:
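HCT116 cells arrested with 100 ng/ml nocodazole for 20 h, then compound for 4 h before lysis. Nucleophosmin Ser4 phosphorylation quantified by MSD electrochemiluminescence with cross-reactive anti-phospho-Mek1/2 antibody; % inhibition relative to cells without nocodazole, IC50 derived.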

Setting [2] is: HCT-116, 18-Cell Line Panel, colon, read-out: IC50 HCT116.
[3] abbreviates: HCT-116, 72 h, 72 hours, SRB assay, read-out: CELLULAR IC50 HCT 116.

Plk1, sequence (P53350 whole entry, species assumed): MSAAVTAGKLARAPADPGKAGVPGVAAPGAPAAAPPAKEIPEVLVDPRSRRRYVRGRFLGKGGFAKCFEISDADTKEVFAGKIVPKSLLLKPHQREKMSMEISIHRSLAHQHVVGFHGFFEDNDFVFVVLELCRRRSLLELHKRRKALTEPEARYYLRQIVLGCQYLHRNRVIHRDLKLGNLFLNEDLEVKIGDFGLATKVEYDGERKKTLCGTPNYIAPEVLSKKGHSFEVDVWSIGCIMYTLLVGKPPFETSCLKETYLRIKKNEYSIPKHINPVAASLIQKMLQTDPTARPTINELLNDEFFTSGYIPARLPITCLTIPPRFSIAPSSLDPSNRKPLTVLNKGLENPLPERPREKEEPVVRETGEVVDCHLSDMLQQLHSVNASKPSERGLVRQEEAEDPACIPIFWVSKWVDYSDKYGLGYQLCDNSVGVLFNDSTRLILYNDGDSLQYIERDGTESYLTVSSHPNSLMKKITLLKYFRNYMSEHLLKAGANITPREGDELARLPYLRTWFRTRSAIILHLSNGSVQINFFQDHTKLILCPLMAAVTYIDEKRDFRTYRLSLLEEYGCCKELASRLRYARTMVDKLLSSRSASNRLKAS

Turning to `CCC1C(=O)N(C)c2cnc(Nc3ccc(C(=O)NC4CCN(C)CC4)cc3OC)nc2N1N(C)C` (racemic) [Compound 1, 4-(8-Dimethylamino-7-ethyl-5-methyl-6-oxo-5,6,7,8-tetrahydro-pteridin-2-ylamino)-3-methoxy-N-(1-methyl-piperidin-4-yl)-benzamide], the “all other kinases were inhibited” value in [1] was “less than 10%”. The concentration for half-maximal inhibition (IC50) with HCT 116 (setting [2]) was below 1 µM; with HCT 116 (setting [3]) it was below 1 µM; with ACHN, above 1 µM; in the assay on DU 145 it was below 1 µM; with MDA-MB-468 it was below 1 µM; with SW620, below 1 µM. Also, the IC50 with HeLa is below 1 µM; with MDA-MB-231 it was above 1 µM; with SK-MEL-28, above 1 µM; on Plk1, below 0.1 µM.

With `CCC1C(=O)N(C)c2cnc(Nc3ccc(C(=O)N[C@H]4CC[C@H](N5CCN(CC6CC6)CC5)CC4)cc3OC)nc2N1N(C)C` (relative stereo) [Compound 13, N-[trans-4-(4-Cyclopropylmethyl-piperazin-1-yl)-cyclohexyl]-4-(8-dimethylamino-7-ethyl-5-methyl-6-oxo-5,6,7,8-tetrahydro-pteridin-2-ylamino)-3-methoxy-benzamide], in assay [1], the “all other kinases were inhibited” value is given as “less than 10%”. Further, the half-maximal inhibitory concentration (IC50) was below 1 µM with HCT 116 (setting [2]); below 1 µM with HCT 116 (setting [3]); below 1 µM in the assay on ACHN; below 1 µM in the assay with DU 145; above 1 µM with MDA-MB-468; below 1 µM in the assay with SW620. Also, the concentration for half-maximal inhibition (IC50) in the assay with HeLa was below 1 µM; in the assay on MDA-MB-231, below 1 µM; in the assay on SK-MEL-28 it was above 1 µM; at Plk1, below 0.1 µM.
